# Results reported in ChEMBL document CHEMBL1795293, “Novel pentamidine derivatives: synthesis, anti-tumor properties and polynucleotide-binding activities” (Eur J Med Chem, 2011).
# The source made the active and inactive calls. The rule behind the calls is not given here.
# Tests used:
# [1] = tested on: Nucleic Acid; test: Binding affinity to Poly dA-Poly dT DNA assessed as change in melting temperature at 0.5 compound to polynucleotide ratio by UV-VIS spectral study; format: nucleic-acid assay
# [2] = tested on: Nucleic Acid; test: Binding affinity to Poly A-Poly U RNA assessed as change in melting temperature at 0.3 compound to polynucleotide ratio by UV-VIS spectral study; format: nucleic-acid assay
# [3] = tested on: Nucleic Acid; test: Binding affinity to Poly A-Poly U RNA measured at 300 to 330 nm wavelength at < 0.3 compound to polynucleotide ratio by circular dichroism spectroscopy; format: nucleic-acid assay
# [4] = tested on: MOLT-4; test: Cytotoxicity against human MOLT4 cells after 72 hrs by MTT assay; format: functional, cell-based; conditions: MOLT-4, 72 h
# [5] = tested on: Nucleic Acid; test: Binding affinity to Poly A-Poly U RNA assessed as change in melting temperature at 0.5 compound to polynucleotide ratio by UV-VIS spectral study; format: nucleic-acid assay
# [6] = tested on: Nucleic Acid; test: Binding affinity to calf thymus DNA assessed as change in melting temperature at 0.3 ratio compound/polynucleotide by UV-VIS spectral study; format: nucleic-acid assay; conditions: Bos taurus
# [7] = molecular target: Nucleic Acid; test: Binding affinity to Poly G-Poly C RNA assessed as ratio of ethidium bromide /compound at which 50% of ethidium bromide fluorescence is quenched by displacement assay; format: nucleic-acid assay
# [8] = tested on: MCF7; test: Cytotoxicity against human MCF7 cells after 72 hrs by MTT assay; format: functional, cell-based; conditions: MCF7, 72 h
# [9] = tested on: HeLa; test: Cytotoxicity against human HeLa cells after 72 hrs by MTT assay; format: functional, cell-based
# [10] = tested on: HCT-116; test: Cytotoxicity against human HCT116 cells after 72 hrs by MTT assay; format: functional, cell-based; conditions: HCT-116, 72 h
# [11] = tested on: MIA PaCa-2; test: Cytotoxicity against human MIAPaCa2 cells after 72 hrs by MTT assay; format: functional, cell-based; conditions: MIA PaCa-2, 72 h
# [12] = molecular target: Nucleic Acid; test: Binding affinity to Poly A-Poly U RNA assessed as ratio of ethidium bromide /compound at which 50% of ethidium bromide fluorescence is quenched by displacement assay; format: nucleic-acid assay
# [13] = tested on: NCI-H460; test: Cytotoxicity against human H460 cells after 72 hrs by MTT assay; format: functional, cell-based; conditions: NCI-H460, 72 h
# [14] = tested on: Nucleic Acid; test: Binding affinity to calf thymus DNA assessed as change in melting temperature at 0.5 compound to polynucleotide ratio by UV-VIS spectral study; format: nucleic-acid assay; conditions: Bos taurus
# [15] = molecular target: Nucleic Acid; test: Binding affinity to Poly dA-Poly dT DNA assessed as ratio of ethidium bromide /compound at which 50% of ethidium bromide fluorescence is quenched by displacement assay; format: nucleic-acid assay
# [16] = tested on: HEp-2; test: Cytotoxicity against human Hep2 cells after 72 hrs by MTT assay; format: functional, cell-based; conditions: HEp-2, 72 h
# [17] = tested on: SW-620; test: Cytotoxicity against human SW620 cells after 72 hrs by MTT assay; format: functional, cell-based; conditions: SW-620, 72 h
# [18] = tested on: Nucleic Acid; test: Binding affinity to calf thymus DNA assessed as ratio of ethidium bromide /compound at which 50% of ethidium bromide fluorescence is quenched by displacement assay; format: nucleic-acid assay, Bos taurus
# [19] = tested on: Nucleic Acid; test: Binding affinity to Poly dA-Poly dT DNA assessed as change in melting temperature at 0.3 compound to polynucleotide ratio by UV-VIS spectral study; format: nucleic-acid assay
# [20] = tested on: Nucleic Acid; test: Stabilization of double helix calf thymus DNA by spectroscopy; format: nucleic-acid assay; conditions: Bos taurus
# [21] = tested on: Nucleic Acid; test: Binding affinity to Poly A-Poly U RNA measured at 299 nm wavelength at < 0.3 compound to polynucleotide ratio by circular dichroism spectroscopy; format: nucleic-acid assay
# [22] = tested on: Nucleic Acid; test: Binding affinity to Poly A-Poly U RNA measured at 303 nm wavelength at < 0.3 compound to polynucleotide ratio by circular dichroism spectroscopy; format: nucleic-acid assay
# [23] = tested on: Nucleic Acid; test: Binding affinity to double strand Poly dA-Poly dT DNA measured at 300 to 330 nm wavelength at 0.3 compound to polynucleotide ratio by circular dichroism spectroscopy; format: nucleic-acid assay
# [24] = tested on: Nucleic Acid; test: Binding affinity to Poly A-Poly U RNA measured at 326 nm wavelength at 0.7 compound to polynucleotide ratio by circular dichroism spectroscopy; format: nucleic-acid assay
# [25] = tested on: Nucleic Acid; test: Binding affinity to double strand calf thymus DNA measured at 300 to 330 nm wavelength at 0.1 compound to polynucleotide ratio by circular dichroism spectroscopy; format: nucleic-acid assay; conditions: Bos taurus
# [26] = tested on: Nucleic Acid; test: Binding affinity to Poly G-Poly C RNA at 0.2-0.3 compound to polynucleotide ratio by circular dichroism spectroscopy; format: nucleic-acid assay
# [27] = tested on: Nucleic Acid; test: Binding affinity to Poly G-Poly C RNA at < 0.3 compound to polynucleotide ratio by circular dichroism spectroscopy; format: nucleic-acid assay
# [28] = tested on: Nucleic Acid; test: Binding affinity to Poly A-Poly U RNA at 0.5 compound to polynucleotide ratio by circular dichroism spectroscopy; format: nucleic-acid assay
# [29] = tested on: Nucleic Acid; test: Binding affinity to double strand Poly dA-Poly dT DNA measured at 300 to 330 nm wavelength at 0.1 compound to polynucleotide ratio by circular dichroism spectroscopy; format: nucleic-acid assay
# [30] = tested on: Nucleic Acid; test: Binding affinity to double strand calf thymus DNA measured at 300 to 330 nm wavelength at 0.3 compound to polynucleotide ratio by circular dichroism spectroscopy; format: nucleic-acid assay; conditions: Bos taurus
# [31] = tested on: Nucleic Acid; test: Binding affinity to Poly G-Poly C RNA at 0.1 compound to polynucleotide ratio by circular dichroism spectroscopy; format: nucleic-acid assay
# [32] = tested on: Nucleic Acid; test: Binding affinity to Poly G-Poly C RNA at 0.5 compound to polynucleotide ratio by circular dichroism spectroscopy; format: nucleic-acid assay
# [33] = tested on: Nucleic Acid; test: Binding affinity to Poly A-Poly U RNA measured at 290 nm wavelength at 0.1 compound to polynucleotide ratio by circular dichroism spectroscopy; format: nucleic-acid assay
# [34] = tested on: Nucleic Acid; test: Binding affinity to double strand calf thymus DNA measured at 300 to 330 nm wavelength at > 0.5 compound to polynucleotide ratio by circular dichroism spectroscopy; format: nucleic-acid assay; conditions: Bos taurus
# [35] = tested on: Nucleic Acid; test: Binding affinity to Poly G-Poly C RNA at 0.7 compound to polynucleotide ratio by circular dichroism spectroscopy; format: nucleic-acid assay
# [36] = tested on: Nucleic Acid; test: Binding affinity to double strand Poly dA-Poly dT DNA measured at 300 to 330 nm wavelength at > 0.5 compound to polynucleotide ratio by circular dichroism spectroscopy; format: nucleic-acid assay
# [37] = tested on: Nucleic Acid; test: Binding affinity to calf thymus DNA by UV-VIS spectral study; format: nucleic-acid assay; conditions: Bos taurus
Structure (SMILES),ΔTm [1] [°C],ΔTm [2] [°C],Activity [3],IC50 [4] [µM],ΔTm [5] [°C],ΔTm [6] [°C],IC50 [7] [molar ratio],IC50 [8] [µM],IC50 [9] [µM],IC50 [10] [µM],IC50 [11] [µM],IC50 [12] [molar ratio],IC50 [13] [µM],ΔTm [14] [°C],IC50 [15] [molar ratio],IC50 [16] [µM],IC50 [17] [µM],IC50 [18] [molar ratio],ΔTm [19] [°C],also measured
CC(C)NC(=N)c1ccc(NC(=O)c2cccc(C(=O)Nc3ccc(C(=N)NC(C)C)cc3)n2)cc1.Cl.Cl,25.5,3.1,Active,> 100,3.7,8.5,0.1,32,53,> 100,> 100,0.17,> 100,10.3,1.37,30,> 100,0.15,24.1,–
CC(C)NC(=N)c1ccc(NC(=O)c2ccco2)cc1,–,–,–,–,–,–,–,> 100,60,–,> 100,–,–,–,–,> 100,> 100,–,–,Activity [20]: inactive
N#Cc1ccc(NC(=O)c2ccco2)cc1,–,–,–,–,–,–,–,32,47,–,> 100,–,–,–,–,> 100,> 100,–,–,–
N#Cc1ccc(NC(=O)c2ccc(C(=O)Nc3ccc(C#N)cc3)o2)cc1,–,–,–,–,–,–,–,> 100,> 100,–,> 100,–,–,–,–,> 100,> 100,–,–,–
CC(C)NC(=N)c1ccc(C(=O)Nc2cccc(NC(=O)c3ccc(C(=N)NC(C)C)cc3)n2)cc1.Cl.Cl,32.2,3.7,Active,> 100,5.7,13.1,0.07,24,56,> 100,> 100,0.07,> 100,14.5,2,38,> 100,0.13,30.5,Activity [21]: Active
Cl.Cl.N=C(N)c1ccc(NC(=O)c2cccc(C(=O)Nc3ccc(C(=N)N)cc3)n2)cc1,–,1,Active,> 100,–,6.7,0.25,> 100,18,> 100,13,0.47,19,–,1.6,47,> 100,0.3,20.4,Activity [22]: Active
Cl.Cl.N=C(N)c1ccc(NC(=O)c2ccc(C(=O)Nc3ccc(C(=N)N)cc3)o2)cc1,–,1.6,–,–,–,7.5,0.36,5,> 100,–,53,1,–,–,2.1,11,> 100,0.8,30.2,–
CC(C)NC(=N)c1ccc(NC(=O)c2ccc(C(=O)Nc3ccc(C(=N)NC(C)C)cc3)o2)cc1.Cl.Cl,31.7,4.5,Active,–,20.1,5.6,0.2,4,50,–,79,0.03,–,6.6,2.23,5,4,0.36,29.5,Activity [23]: inactive; Activity [24]: Active; Activity [25]: Active; Activity [26]: Active; Activity [27]: Active; Activity [28]: Active; Activity [29]: Active; Activity [30]: inactive; Activity [31]: Active; Activity [32]: Active; Activity [33]: Active; Activity [34]: Active; Activity [35]: Active; Activity [36]: Active; Ks [37]: 6.3 ×10⁴ /M
N=C(N)c1ccc(NC(=O)c2ccco2)cc1,–,–,–,–,–,–,–,33,> 100,–,> 100,–,–,–,–,> 100,> 100,–,–,Activity [20]: inactive
Cl.Cl.N=C(N)c1ccc(C(=O)Nc2cccc(NC(=O)c3ccc(C(=N)N)cc3)n2)cc1,30.9,1,Active,> 100,18.7,13.5,0.07,12,19,67,13,0.5,17,15,1.7,21,> 100,0.19,29.3,Activity [21]: inactive
